Converted amounts (≈) assume the structure as drawn. Read-outs that look alike come from different tables or passages of the source.
Key:
[1] = tested on: Enterococcus faecalis that does not carry vancomycine resistance genes (incl. ATCC29212); assay: Test Example 2: vancomycin MIC changes when D-lactic acid (DL-sodium lactate) is added (checkerboard method); assay type: cell-based; details: DL-sodium lactate 0.025-[…]
[2] = tested on: Enterococcus faecium that does not carry vancomycine resistance genes; assay: as above; assay type: cell-based; details: DL-sodium lactate 0.025-[…]
[3] = tested on: Enterococcus avium that does not carry vancomycine resistance genes; assay: as above; assay type: cell-based; details: DL-sodium lactate 0.025-[…]
[4] = tested on: Van C type, Enterococcus casseliflavus; assay: as above; assay type: cell-based
[5] = tested on: Van C type, Enterococcus gallinarum; assay: as above; assay type: cell-based
[6] = tested on: Van A VRE; assay: as above; assay type: cell-based, E. faecium
[7] = tested on: Van B VRE; assay: as above; assay type: cell-based, E. faecium, E. faecalis
[8] = tested on: Van A VRE; assay: microbe, parasite or virus in culture; assay type: cell-based, E. faecium; details: Enterococcus, read-out: vancomycin MIC
[9] = tested on: Van B VRE; assay: microbe, parasite or virus in culture; assay type: cell-based, E. faecium, E. faecalis; details: Enterococcus, read-out: vancomycin MIC
[10] = tested on: Van C VRE; details: cited from earlier work
[11] = tested on: Van D VRE; details: cited from earlier work
[12] = tested on: Van E VRE; details: cited from earlier work
[13] = tested on: Van G VRE; details: cited from earlier work
[14] = tested on: Van C type, Enterococcus casseliflavus; assay: microbe, parasite or virus in culture; details: read-out: vancomycin MIC, with addition of D-cycloserine, all strains of the group
[15] = tested on: Van C type, Enterococcus gallinarum; assay: microbe, parasite or virus in culture; details: read-out: vancomycin MIC, with addition of D-cycloserine, all strains of the group
[16] = tested on: Van A VRE; details: carries van A gene; cited from earlier work
[17] = tested on: Van B VRE; details: carries van B gene; cited from earlier work
[18] = Enterococcus, VRE, read-out: vancomycin MIC

For CC(O)C(=O)[O-].[Na+] (racemic) [DL-sodium lactate], the “effect of the addition of DL-sodium lactate on the vancomycin MIC” value (“effect” for short) [1] was “did not change the vancomycin MIC”, the “effect” value [2] was “did not change the vancomycin MIC” and the “effect” value [3] was “did not change the vancomycin MIC”. The “effect” value ([4]; DL-sodium lactate 0.025-[…]) was “The addition of DL-sodium lactate did not change the vancomycin”, the “effect” value ([5]; DL-sodium lactate 0.025-[…]) was “The addition of DL-sodium lactate did not change the vancomycin” and the “effect” value ([6]; DL-sodium lactate 0.025-[…], 5 strains) was “increased the vancomycin MIC or maintained the vancomycin MIC as high as more than 512 μg/ml”. For the same molecule, the “optimum concentration of addition of DL-sodium lactate” value ([7]; for increasing the vancomycin MIC) was 0.2 mol/L and the “concentration of DL-sodium lactate at which the organisms tend to grow worse” value ([7]; growth worse in line with the added amount) was “more than 0.4 mol/l”.
CN[C@H](CC(C)C)C(=O)N[C@H]1C(=O)N[C@@H](CC(N)=O)C(=O)N[C@H]2C(=O)N[C@H]3C(=O)N[C@H](C(=O)N[C@H](C(=O)O)c4cc(O)cc(O)c4-c4cc3ccc4O)[C@H](O)c3ccc(c(Cl)c3)Oc3cc2cc(c3O[C@@H]2O[C@H](CO)[C@@H](O)[C@H](O)[C@H]2O[C@H]2C[C@](C)(N)[C@H](O)[C@H](C)O2)Oc2ccc(cc2Cl)[C@H]1O [vancomycin] showed an MIC [8] of over 32 µg/mL, an MIC [9] of over 32 µg/mL and an MIC ([4]; Enterococcus casseliflavus, read-out: vancomycin MIC, with addition of DL-sodium lactate, all strains of the group) of under 32 µg/mL. For the same molecule, the MIC ([5]; Enterococcus gallinarum, GALLINARUM, read-out: vancomycin MIC, with addition of DL-sodium lactate, all strains of the group) was under 32 µg/mL, the MIC [6, 18] was over 32 µg/mL and the MIC [7, 18] was over 32 µg/mL. For the same molecule, the “minimum inhibitory concentration (MIC)” value [10] was 2 to 32 µg/mL, the “minimum inhibitory concentration (MIC)” value [11] was 64 to 1024 µg/mL and the “minimum inhibitory concentration (MIC)” value [12] was 16 µg/mL (≈ 11 µM). The “minimum inhibitory concentration (MIC)” value [13] was 12 to 16 µg/mL, the MIC [14] was under 32 µg/mL and the MIC [15] was under 32 µg/mL.
For teicoplanin, the “minimum inhibitory concentration (MIC)” value [16] is listed as 16 to 512 µg/mL, the “minimum inhibitory concentration (MIC)” value [17] is listed as 0.5 to 1 µg/mL and the “minimum inhibitory concentration (MIC)” value ([10]; carries van C gene) is listed as 0.5 to 1 µg/mL. For the same molecule, the “minimum inhibitory concentration (MIC)” value ([11]; carries van D gene) was 4 to 1024 µg/mL, the “minimum inhibitory concentration (MIC)” value ([12]; carries van E gene) was 0.5 µg/mL and the “minimum inhibitory concentration (MIC)” value ([13]; carries van G gene) was 0.5 µg/mL.

Source: patent publication US7364874B2, “Mediucm for detecting Van A and Van B vancomycin-resistant entercocci and method of using the same” (priority 2001, dated 2008)
